Reference: patent publication US10265303B2, “Hyperphenylalaninemia and treatments thereof” (BERGEN TEKNOLOGIOVERFØRING AS, priority 2015, dated 2019)
Positions count from the first letter of the chain named.

Columns and labels:
hPAH = target: T1, hPAH (Homo sapiens, UniProt P00439); test: SPR screening and affinity determination on immobilized hPAH (Biacore T200); type: binding; details: for Kd: SPR, 25° C., compound 0-500 μM in 5% DMSO, affinities said to be overestimated, relative KD reliable, read-out: KD (μM) ± SER
T1 sequence (P00439 1-452): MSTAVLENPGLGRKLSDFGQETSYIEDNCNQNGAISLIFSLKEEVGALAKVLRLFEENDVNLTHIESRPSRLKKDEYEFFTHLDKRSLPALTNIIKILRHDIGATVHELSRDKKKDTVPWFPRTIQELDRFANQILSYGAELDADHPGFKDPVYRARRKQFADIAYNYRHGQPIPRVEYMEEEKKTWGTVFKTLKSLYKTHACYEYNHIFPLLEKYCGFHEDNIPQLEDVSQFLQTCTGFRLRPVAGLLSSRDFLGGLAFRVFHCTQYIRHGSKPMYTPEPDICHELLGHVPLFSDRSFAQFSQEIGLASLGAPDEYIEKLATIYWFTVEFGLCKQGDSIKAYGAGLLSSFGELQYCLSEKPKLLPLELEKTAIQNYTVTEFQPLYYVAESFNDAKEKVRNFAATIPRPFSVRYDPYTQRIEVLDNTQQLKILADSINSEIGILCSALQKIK
Experimental: For detailed determination of binding affinity of Compound 53 and derivatives (FIG. 4) SPR was performed on a Biacore T200 (GE Healthcare Life Sciences) at a temperature of 25° C. A hPAH solution at 0.08 μg/μl in a final volume of 200 μl in acetate buffer pH 5.0 was immobilized onto series S sensor chip CM5 by the standard amine coupling procedure at a flow rate of 30 μl/min and PBS-P+ buffer as running buffer aiming for RU 20000. After the coupling reaction the surface of the sensor chip was washed to eliminate unbound species with HBS buffer (0.01 M NaHepes pH 7.4, 0.15 M NaCI) at steady flow of 20 μl/min for 1 hour until the baseline drift was around 0.05 RU/s; note that an early injection of 40 μl dithiothreitol (DTT) 10 mM in HBS allowed for this reduced washing time.
For the screening, compounds were assayed at a concentration of 200 μM, with 5% DMSO in duplicates, including negative controls with 5% DMSO, positive controls, with 200 μM BH2 and solvent correction was also performed. For KD calculations, a compound concentration 0-500 μM (in 5% DMSO) were applied at otherwise analogous experimental design and analyses were performed using Biacore T200 Evaluation Software, version 2.0 (GE Healthcare Life Sciences).
All the responses from the compounds of the screening were subjected to blank subtraction (negative control 5% DMSO), molecular weight adjustment and solvent correction to account for differences in bulk response. Next a cut-off value for the screening was selected based on the response of the positive control of our experiments: RU BH2+3*SD (2.88+3*1.79=8.27). In this manner, from the 11 derivatives of Compound 53 tested (see FIG. 4) we weeded out those compounds with a lower response than 8.27, namely #53.2, #53.9 and #53.11.
In addition and for the rest of the compounds which continued our workflow, binding affinities were determined and the results are shown in the following table. The selected conditions to measure affinity are selected for high throughput measurements, but the affinities are overestimated though the relative KD for the different compounds are reliable.

human wild-type PAH [1] = target: T2, human wild-type PAH (Homo sapiens, UniProt P00439); test: PAH activity in lysates of HEK293 cells permanently expressing human wild-type PAH; type: cell-based; details: 1% DMSO, 8 h; for PAH activity-cells (%): 0.04 mg/ml compound, Table 3; for increase of hPAH activity with respect to the control (FIG. 6): average compound concentration 144.9 μM
T2 construct: expressed in transfected cells
T2 sequence (P00439 1-452): T1 sequence (P00439 1-452)
Experimental: (§1) Human embryonic kidney cells (HEK293; Life Technologies™) permanently expressing WT-hPAH, prepared with the Flp-In system (Life Technologies™) were kindly provided by Per Knappskog, Haukeland University Hospital. About 1 million cells were grown in DMEM medium containing 4.5 g/l glucose, 10% (v/v) fetal calf serum, 0.25 mg/ml gentamycine, 2 mM L-glutamine and 50 μg/ml hygromycin B, and after 24 h medium was changed and the test compounds were added at a concentration of 0.02 mg/ml (1% DMSO). Eight hours later, the cells were harvested, and the pellets frozen in dry ice and stored at −80° C. […] To prepare the cell extracts, the frozen cell pellets were thawed in TBS (+protease inhibitor) buffer and cells were homogenized with 0.1% TX-100, incubated 15 minutes at 4° C. and extracts were clarified by centrifugation 20000 g for 15 min at 4° C. Protein concentrations were normalized using a Direct Detect Spectrometer (Merck Millipore).
The 7 selected compounds as well as the first generation pharmacological chaperones (Compounds III and IV) were further analyzed in the presence and absence of BH2 (200 μM), added as precursor of BH4, to account for additive effects. […]
as §1, with “and the compounds were” for “and the test compounds were”, “concentration of 0.04 mg/ml (1%” for “concentration of 0.02 mg/ml (1%”, “for 15 minutes at 4°” for “for 15 min at 4°”

human wild-type PAH [2] = target: T2, human wild-type PAH; test: PAH immunoreactive protein level (Western blot) in HEK293 cells permanently expressing human wild-type PAH; type: cell-based; details: BH2 200 μM alone, 8 h, 1% DMSO
Experimental: as §1
The 7 selected compounds as well as the first generation pharmacological chaperones (Compounds III and IV) were further analyzed in the presence and absence of BH2 (200 μM), added as precursor of BH4, to account for additive effects. A higher concentration of compound was also used 0.04 mg/ml (average of 116.7 μM) at otherwise same experimental conditions.

I65T-PAH = target: T3, I65T-PAH (Homo sapiens, UniProt P00439, I65T); test: PAH protein level and activity in HEK293 EBNA cells transiently expressing PKU mutant I65T; type: cell-based; details: 200 μM, 24 h, 1% DMSO
T3 construct: expressed in transfected cells; host or cells: HEK293 EBNA, transient, pcDNA3-PAH
T3 sequence (P00439 1-452 I65T): T1 sequence (P00439 1-452) with I65T
Experimental: (§2) Cell lysates were prepared as indicated above.

R261Q-PAH = target: T4, R261Q-PAH (Homo sapiens, UniProt P00439, R261Q); test: PAH protein level and activity in HEK293 EBNA cells transiently expressing PKU mutant R261Q; type: cell-based; details: 200 μM, 24 h, 1% DMSO
T4 construct: expressed in transfected cells; host or cells: HEK293 EBNA, transient, pcDNA3-PAH
T4 sequence (P00439 1-452 R261Q): T1 sequence (P00439 1-452) with R261Q
Experimental: as §2

[3] = target: dihydrofolate reductase (DHFR); details: read-out: IC50 (DHFR); ChEMBL database; cited from earlier work

| SMILES | Kd (hPAH) [µM] | PAH activity-cells (%) (human wild-type PAH [1]) | other results |
| --- | --- | --- | --- |
| Nc1nc2c(c(=O)[nH]1)C(c1ccc(Cl)cc1Cl)CC(=O)N2 (racemic) [c53.10] | 22.9 ± 2.7 | 155 ± 13 | increase of hPAH activity with respect to the control (FIG. 6) (human wild-type PAH [1]): around 40% |
| COc1ccc(C2CC(=O)Nc3nc(N)[nH]c(=O)c32)cc1OC (racemic) [c53.16] | 76.3 ± 26.4 | 146 ± 10 |  |
| Nc1nc2c(c(=O)[nH]1)C(c1ccc3c(c1)OCO3)CC(=O)N2 (racemic) [c53.17] | 11 ± 3.7 | 206 ± 10 |  |
| COc1ccc(C2CC(=O)Nc3nc(N)[nH]c(=O)c32)cc1 (racemic) [c53.19] | 37.2 ± 23.7 | 170 ± 17 |  |
| COc1cccc(C2CC(=O)Nc3nc(N)[nH]c(=O)c32)c1 (racemic) [c53.20] | 23.2 ± 11.7 | 206 ± 5 |  |
| Nc1nc2c(c(=O)[nH]1)C(c1ccc(Cl)cc1)CC(=O)N2 (racemic) [c53.22] | 30.1 ± 6.5 | 154 ± 16 |  |
| CSc1nc2c(c(=O)[nH]1)C(c1ccc3c(c1)OCO3)CC(=O)N2 (racemic) [c53.26] | 62.1 ± 30.7 | 109 ± 5 |  |
| COc1cc(C2CC(=O)Nc3nc(N)ccc32)cc(Cl)c1OC (racemic) [c53.29] | 191 ± 20 | 155 ± 7 |  |
| COc1ccc(C2CC(=O)Nc3nc(N)ccc32)cc1O (racemic) [c53.31] | 55.9 ± 6.7 | 125 ± 8 |  |
| Nc1ccc2c(n1)NC(=O)CC2c1ccc2c(c1)OCCO2 (racemic) [c53.32] | 102 ± 11 |  |  |
| COc1ccc(C2CC(=O)Nc3nc(N)ccc32)c(OC)c1OC (racemic) [c53.33] | 182 ± 32 |  |  |
| Nc1nc2c(c(=O)[nH]1)C(c1ccc3c(c1)OCO3)CC(=O)N2 (racemic) [c53.35] | 23.7 ± 5 |  |  |
| Nc1nc2c(c(=O)[nH]1)C(c1cccc(Cl)c1)CC(=O)N2 (racemic) [c53.40] | 11.6 ± 1.6 |  |  |
| Nc1nc2c(c(=O)[nH]1)C(c1cccc3ccccc13)CC(=O)N2 (racemic) [c53.41] | 12.6 ± 6.4 |  |  |
| C[C@H](O)[C@H](O)C1=Nc2c(nc(N)[nH]c2=O)NC1 [BH2] |  |  | SPR screening response (blank-subtracted, MW-adjusted, solvent-corrected) (hPAH; 200 μM, 5% DMSO, duplicates, cut-off 8.27): 2.88 RU; stimulating effect on PAH activity (human wild-type PAH [1]; BH2 200 μM alone): 21.7%; stimulating effect on PAH protein (human wild-type PAH [2]): 24.8%; PAH activity, mutant I65T (I65T-PAH): increased; hPAH protein level, mutant I65T (I65T-PAH): increased; PAH activity, mutant R261Q (R261Q-PAH): increased; hPAH protein level, mutant R261Q (R261Q-PAH): increased |
| COc1cc(Cc2ccc(N)nc2N)cc(OC)c1O [CHEMBL 128600] |  |  | IC50 [3]: 10000 µM |
| COc1ccc(Cc2cnc(N)nc2N)cc1OC [c53.1] | 104 ± 14 | 130 ± 8 |  |
| COc1cc(Cc2ccc(N)nc2N)cc(OC)c1OC [c53.4] | 45.2 ± 9.1 | 165 ± 28 | increase of hPAH activity with respect to the control (FIG. 6) (human wild-type PAH [1]): around 40% |
| COc1cc(C(c2c[nH]c3ccccc23)c2c[nH]c3ccccc23)cc(OC)c1OC [c53.5] | 370 ± 228 |  |  |
| CCOc1ccc(Cc2cnc(S)nc2N)cc1 [c53.6] | 103 ± 48.8 | 120 ± 12 |  |
| Nc1ncc(Cc2ccc3c(c2)OCO3)c(N)n1 [c53.7] | 6.9 ± 4.9 | 119 ± 5 |  |
| Nc1nc(N)c(Cc2ccc3c(c2)OCO3)c(N)n1 [c53.14] | 24.7 ± 12.1 | 175 ± 23 |  |
